{
  "source": "patent US20220162191A1",
  "about": "“SMALL MOLECULE MODULATORS OF IL-17” (LEO PHARMA A/S, priority 2019, published 2022)",
  "data": [
    {"molecular_target": "T1, human IL-17AA (Homo sapiens, UniProt Q16552)", "T1 construct": "host or cells: HEK (human embryonic kidney) cells", "T1 sequence (Q16552 24-155) 1": "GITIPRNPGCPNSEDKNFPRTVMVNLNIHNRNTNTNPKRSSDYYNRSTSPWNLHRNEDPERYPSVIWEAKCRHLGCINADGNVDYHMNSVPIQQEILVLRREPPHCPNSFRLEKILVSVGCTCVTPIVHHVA", "T1 sequence (Q16552 24-155) 2": "T1 sequence (Q16552 24-155) 1", "assay": "IL-8 release assay in human epithelial keratinocytes adult (HEKa)", "type": "cell-based", "conditions": "3 ng/ml human IL-17AA + 10 ng/ml human TNFalpha, 68-72 h, IL-8 by HTRF, read-out: Rel EC50 L-8 release assay", "outline": "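IL-8 secretion, quantified by HTRF (665/620 nm) as percent of controls, served as the readout after 68–72 h culture of HEKa cells with compound plus IL-17AA (3 ng/ml final) and TNF-alpha (10 ng/ml final). Four-parameter logistic curves gave relative IC50 and Emax.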", "units": {"EC50": "nM"}, "values": [
      {"molecule": "Cc1cnn(C)c1-c1ccc(NC(=O)[C@@H](NC(=O)C2(F)CC2)[C@@H](c2cccc(-c3cncc(N4C[C@@H]5C[C@H]4CO5)n3)c2)C2CC2)cc1", "note": "[Example 350, N-[(1S)-1-[(R)-cyclopropyl-[3-[6-[(1S,4S)-2-oxa-5-azabicyclo[2.2.1]heptan-5-yl]pyrazin-2-yl]phenyl]methyl]-2-[4-(2,4-dimethylpyrazol-3-yl)anilino]-2-oxo-ethyl]-1-fluoro-cyclopropanecarboxamide]", "EC50": "< 100"},
      {"molecule": "Cc1cnn(C)c1-c1ccc(NC(=O)[C@@H](NC(=O)c2ccnn2C)[C@@H](c2cccc(-c3cc(N4C[C@@H]5C[C@H]4CO5)ncn3)c2)C2CC2)cc1", "note": "[Example 351, N-[(1S)-1-[(R)-cyclopropyl-[3-[6-[(1S,4S)-2-oxa-5-azabicyclo[2.2.1]heptan-5-yl]pyrimidin-4-yl]phenyl]methyl]-2-[4-(2,4-dimethylpyrazol-3-yl)anilino]-2-oxo-ethyl]-2-methyl-pyrazole-3-carboxamide]", "EC50": "100 to 1000"},
      {"molecule": "Cc1cnn(C)c1-c1ccc(NC(=O)[C@@H](NC(=O)C2(F)CC2)[C@@H](c2cccc(-c3cc(N4C[C@@H]5C[C@H]4CO5)ncn3)c2)C2CC2)cc1", "note": "[Example 352, N-[(1S)-1-[(R)-cyclopropyl-[3-[6-[(1S,4S)-2-oxa-5-azabicyclo[2.2.1]heptan-5-yl]pyrimidin-4-yl]phenyl]methyl]-2-[4-(2,4-dimethylpyrazol-3-yl)anilino]-2-oxo-ethyl]-1-fluoro-cyclopropanecarboxamide]", "EC50": "100 to 1000"},
      {"molecule": "Cc1n[nH]c(C)c1-c1ccc(NC(=O)[C@@H](NC(=O)C2(F)CC2)[C@@H]2CCc3ccc(-c4cc(C(C)C)ncn4)cc32)cc1", "note": "[Example 353, N-[(1S)-2-[4-(3,5-dimethyl-1H-pyrazol-4-yl)anilino]-1-[(1R)-6-(6-isopropylpyrimidin-4-yl)indan-1-yl]-2-oxo-ethyl]-1-fluoro-cyclopropanecarboxamide]", "EC50": "100 to 1000"},
      {"molecule": "Cc1n[nH]c(C)c1-c1ccc(NC(=O)[C@@H](NC(=O)C2(F)CC2)[C@@H]2CCc3ccc(-c4ccnc(N5C[C@@H]6C[C@H]5CO6)c4)cc32)cc1", "note": "[Example 354, N-[(1S)-2-[4-(3,5-dimethyl-1H-pyrazol-4-yl)anilino]-1-[(1R)-6-[2-[(1S,4S)-2-oxa-5-azabicyclo[2.2.1]heptan-5-yl]-4-pyridyl]indan-1-yl]-2-oxo-ethyl]-1-fluoro-cyclopropanecarboxamide]", "EC50": "< 100"},
      {"molecule": "Cc1cnn(C)c1-c1ccc(NC(=O)[C@@H](NC(=O)C2(F)CC2)[C@@H]2CCc3ccc(-c4cc(C)c(=O)n(C(C)C)c4)cc32)cc1", "note": "[Example 355, N-[(1S)-2-[4-(2,4-dimethylpyrazol-3-yl)anilino]-1-[(1R)-6-(1-isopropyl-5-methyl-6-oxo-3-pyridyl)indan-1-yl]-2-oxo-ethyl]-1-fluoro-cyclopropanecarboxamide]", "EC50": "100 to 1000"},
      {"molecule": "Cc1n[nH]c(C)c1-c1ccc(NC(=O)[C@@H](NC(=O)C2(F)CC2)[C@@H]2CCc3ccc(-c4cc(N5C[C@@H]6C[C@H]5CO6)ncn4)cc32)cc1", "note": "[Example 356, N-[(1S)-2-[4-(3,5-dimethyl-1H-pyrazol-4-yl)anilino]-1-[(1R)-6-[6-[(1S,4S)-2-oxa-5-azabicyclo[2.2.1]heptan-5-yl]pyrimidin-4-yl]indan-1-yl]-2-oxo-ethyl]-1-fluoro-cyclopropanecarboxamide]", "EC50": "100 to 1000"},
      {"molecule": "Cc1n[nH]c(C)c1-c1ccc(NC(=O)[C@@H](NC(=O)C2(F)CC2)[C@@H]2CCc3ccc(-c4cc(C)c(=O)n(C(C)C)c4)cc32)cc1", "note": "[Example 357, N-[(1S)-2-[4-(3,5-dimethyl-1H-pyrazol-4-yl)anilino]-1-[(1R)-6-(1-isopropyl-5-methyl-6-oxo-3-pyridyl)indan-1-yl]-2-oxo-ethyl]-1-fluoro-cyclopropanecarboxamide]", "EC50": "< 100"},
      {"molecule": "Cc1ncn(C)c1-c1ccc(NC(=O)[C@@H](NC(=O)C2(F)CC2)[C@@H]2CCc3ccc(-c4ccnc(N5C[C@@H]6C[C@H]5CO6)c4)cc32)cc1O", "note": "[Example 358, N-[(1S)-2-[4-(3,5-dimethylimidazol-4-yl)-3-hydroxy-anilino]-1-[(1R)-6-[2-[(1S,4S)-2-oxa-5-azabicyclo[2.2.1]heptan-5-yl]-4-pyridyl]indan-1-yl]-2-oxo-ethyl]-1-fluoro-cyclopropanecarboxamide]", "EC50": "< 100"},
      {"molecule": "Cc1cnn(C)c1-c1ccc(NC(=O)[C@@H](NC(=O)C2(F)CC2)[C@@H]2CCc3ccc(-c4ccnc(N5CC[C@H](O)C5)c4)cc32)cc1", "note": "[Example 359, N-[(1S)-2-[4-(2,4-dimethylpyrazol-3-yl)anilino]-1-[(1R)-6-[2-[(3S)-3-hydroxypyrrolidin-1-yl]-4-pyridyl]indan-1-yl]-2-oxo-ethyl]-1-fluoro-cyclopropanecarboxamide]", "EC50": "100 to 1000"},
      {"molecule": "Cc1n[nH]c(C)c1-c1ccc(NC(=O)[C@@H](NC(=O)C2(F)CC2)[C@@H]2CCc3ccc(-n4cnc(C(C)C)c4)cc32)cc1", "note": "[Example 360, N-[(1S)-2-[4-(3,5-dimethyl-1H-pyrazol-4-yl)anilino]-1-[(1R)-6-(4-isopropylimidazol-1-yl)indan-1-yl]-2-oxo-ethyl]-1-fluoro-cyclopropanecarboxamide]", "EC50": "100 to 1000"},
      {"molecule": "Cc1n[nH]c(C)c1-c1ccc(NC(=O)[C@@H](NC(=O)c2ccnn2C)[C@@H]2CCc3ccc(-n4cnc(C(C)C)c4)cc32)cc1", "note": "[Example 361, N-[(1S)-2-[4-(3,5-dimethyl-1H-pyrazol-4-yl)anilino]-1-[(1R)-6-(4-isopropylimidazol-1-yl)indan-1-yl]-2-oxo-ethyl]-2-methyl-pyrazole-3-carboxamide]", "EC50": "100 to 1000"},
      {"molecule": "Cc1n[nH]c(C)c1-c1ccc(NC(=O)[C@@H](NC(=O)C2(F)CC2)[C@@H]2CCc3ccc(-c4ccnc(N5C[C@H]6C[C@@H]5CO6)c4)cc32)cc1", "note": "[Example 362, N-[(1S)-2-[4-(3,5-dimethyl-1H-pyrazol-4-yl)anilino]-1-[(1R)-6-[2-[(1R,4R)-2-oxa-5-azabicyclo[2.2.1]heptan-5-yl]-4-pyridyl]indan-1-yl]-2-oxo-ethyl]-1-fluoro-cyclopropanecarboxamide]", "EC50": "< 100"},
      {"molecule": "Cc1n[nH]c(C)c1-c1ccc(NC(=O)[C@@H](NC(=O)C2(F)CC2)[C@@H]2CCc3ccc(-c4ccnc(N5CC6(COC6)C5)c4)cc32)cc1", "note": "[Example 364, N-[(1S)-2-[4-(3,5-dimethyl-1H-pyrazol-4-yl)anilino]-1-[(1R)-6-[2-(6-oxa-2-azaspiro[3.3]heptan-2-yl)-4-pyridyl]indan-1-yl]-2-oxo-ethyl]-1-fluoro-cyclopropanecarboxamide]", "EC50": "< 100"},
      {"molecule": "Cc1cnn(C)c1-c1ccc(NC(=O)[C@@H](NC(=O)C2(F)CC2)[C@@H]2CCc3ccc(-c4cc(N5C[C@@H]6C[C@H]5CO6)ncn4)cc32)cc1", "note": "[Example 365, N-[(1S)-2-[4-(2,4-dimethylpyrazol-3-yl)anilino]-1-[(1R)-6-[6-[(1S,4S)-2-oxa-5-azabicyclo[2.2.1]heptan-5-yl]pyrimidin-4-yl]indan-1-yl]-2-oxo-ethyl]-1-fluoro-cyclopropanecarboxamide]", "EC50": "100 to 1000"},
      {"molecule": "Cc1nc(-c2ccc3c(c2)[C@H]([C@H](NC(=O)C2(F)CC2)C(=O)Nc2ccc(-c4c(C)n[nH]c4C)cc2)CC3)cc(N2C[C@@H]3C[C@H]2CO3)n1", "note": "[Example 366, N-[(1S)-2-[4-(3,5-dimethyl-1H-pyrazol-4-yl)anilino]-1-[(1R)-6-[2-methyl-6-[(1S,4S)-2-oxa-5-azabicyclo[2.2.1]heptan-5-yl]pyrimidin-4-yl]indan-1-yl]-2-oxo-ethyl]-1-fluoro-cyclopropanecarboxamide]", "EC50": "100 to 1000"},
      {"molecule": "Cc1n[nH]c(C)c1-c1ccc(NC(=O)[C@@H](NC(=O)C2(F)CC2)[C@@H]2CCc3ccc(-c4ccnc(N5C[C@@H]6C[C@H]5CO6)n4)cc32)cc1", "note": "[Example 367, N-[(1S)-2-[4-(3,5-dimethyl-1H-pyrazol-4-yl)anilino]-1-[(1R)-6-[2-[(1S,4S)-2-oxa-5-azabicyclo[2.2.1]heptan-5-yl]pyrimidin-4-yl]indan-1-yl]-2-oxo-ethyl]-1-fluoro-cyclopropanecarboxamide]", "EC50": "< 100"},
      {"molecule": "Cc1n[nH]c(C)c1-c1ccc(NC(=O)[C@@H](NC(=O)C2(F)CC2)[C@@H]2CCc3ccc(-c4cc(N5C[C@@H]6C[C@H]5CO6)ccn4)cc32)cc1", "note": "[Example 368, N-[(1S)-2-[4-(3,5-dimethyl-1H-pyrazol-4-yl)anilino]-1-[(1R)-6-[4-[(1S,4S)-2-oxa-5-azabicyclo[2.2.1]heptan-5-yl]-2-pyridyl]indan-1-yl]-2-oxo-ethyl]-1-fluoro-cyclopropanecarboxamide]", "EC50": "100 to 1000"},
      {"molecule": "Cc1cnn(C)c1-c1ccc(NC(=O)[C@@H](NC(=O)C2(F)CC2)[C@@H]2CCc3ccc(-c4ccnc(N5C[C@@H]6C[C@H]5CO6)c4)cc32)cc1O", "note": "[Example 369, N-[(1S)-2-[4-(2,4-dimethylpyrazol-3-yl)-3-hydroxy-anilino]-1-[(1R)-6-[2-[(1S,4S)-2-oxa-5-azabicyclo[2.2.1]heptan-5-yl]-4-pyridyl]indan-1-yl]-2-oxo-ethyl]-1-fluoro-cyclopropanecarboxamide]", "EC50": "< 100"},
      {"molecule": "Cc1cc(-c2ccc3c(c2)[C@H]([C@H](NC(=O)C2(F)CC2)C(=O)Nc2ccc(-c4c(C)n[nH]c4C)cc2)CC3)nc(N2C[C@@H]3C[C@H]2CO3)n1", "note": "[Example 370, N-[(1S)-2-[4-(3,5-dimethyl-1H-pyrazol-4-yl)anilino]-1-[(1R)-6-[6-methyl-2-[(1S,4S)-2-oxa-5-azabicyclo[2.2.1]heptan-5-yl]pyrimidin-4-yl]indan-1-yl]-2-oxo-ethyl]-1-fluoro-cyclopropanecarboxamide]", "EC50": "< 100"}
    ]}
  ]
}
